Series [1] can be described thus: Whole blood total radioactivity (AMS) PK after SC ^14C-zalunfiban. It is filed as in vivo, human. The method, then: The planned participant enrolment size was 8, with 2 additional alternate participants available on the morning of dosing. Following a 28-day screening period, all eligible participants were admitted to the research unit the evening before dosing. After fasting overnight, participants completed a standard breakfast prior to dosing on study day 1. After dosing, subjects fasted for 4 h. Fluids were permitted ad libitum starting 1-hour after dosing. […] The clinical study was conducted at the Pharmaron Clinical Pharmacology Centre (Baltimore, MD) and the study protocol, consent forms and regulatory documents were reviewed and approved by the […] Institutional Review Board (Columbia, MD). All participants received the same fixed mass dose of SC 9.5 mg ^14C-zalunfiban (5 μCi), in 0.5 mL of formulation solution. This zalunfiban dose was chosen to both ensure participant safety and to make certain the study results were clinically relevant. For the latter, by strict inclusion of participants with a body weight within the range of 73-99 kg, the zalunfiban doses were no higher than the highest administered in the currently ongoing Phase 3 study, which includes three groups of 0.110 mg/kg zalunfiban, 0.130 mg/kg zalunfiban, and placebo ([NIH 2025]). The ^14C radiolabel dose of 5 μCi presented minimal radiation risk to healthy subjects while providing a high likelihood of meeting the study objectives. […] At the laboratory, extraction of ^14C-zalunfiban from whole blood was achieved by repeated microcentrifugation, vortex mixing, and harvesting to collect analytes (see Metabolite profiling and excretion for more details). […] Whole blood samples were analysed using accelerator mass spectrometry (AMS). Urine sample analysis was performed using liquid scintillation counting analysis. Each sample was counted for at least 10 min or until the 2%2σ terminator was reached. Homogenised faeces samples were combusted in a Perkin Elmer, Model 307 sample oxidiser (Perkin Elmer, Waltham MA). […] For urine and faeces samples, total radioactivity analysis was initially performed using two liquid scintillation counters (LSC), a TriCarb 3180 TR/SL and a TriCarb 5110 TR (Perkin Elmer, Waltham MA). When the measured total radioactivity concentration was above the LLOQ, LSC data were reported. For LSC, the LLOQ was defined as twice the background count rate. If the radioactivity concentration was below the limit of quantification (BLOQ), samples were analysed by Accelerator Mass Spectrometry (AMS). For AMS analysis, the LLOQ for total radioactivity depends on multiple factors, including the carbon content of the sample, and it is provided as the mean of all participant values. The mean (SD) total radioactivity LLOQ for zalunfiban in whole blood was 0.2421 (0.0571) ngEq/mL, for faeces 0.0663 (0.0135) ngEq/gm, and urine 0.0088 (0.0029) ngEq/g. Zalunfiban and whole blood radioactivity concentrations were used to calculate PK parameters using standard non-compartmental analysis (NCA) methods using Phoenix WinNonlin software (Phoenix, Princeton, NJ). All statistical programming and tables, figures and listings were carried out using SAS 9.4 (SAS Institute, Inc., Cary, NC).

The nature of series [2]: Metabolite profiling of pooled whole blood, urine and faeces by LC radiochromatograms with AMS. It is filed as in vivo, human. As to the method: For metabolite profiling in whole blood, urine, and faeces, LC-MS/MS followed by AMS was used. The HPLC system included a 1290 Infinity Sampler, Binary Pump, and thermostat (Agilent, UK). The chromatographic method used an aqueous formic acid (MPA)/ammonium acetate:acetonitrile:methanol (MPB) gradient and a Scherzo SS-C18 HPLC column at a temperature of 40 °C with injection volumes of 50–200 microliters. The gradient was set at 90% MAP and 10% MPB. The mass spectrometer was a Q-Exactive system (Thermo Fisher Scientific, UK) and the AMS a single stage NEC SSAMS-250.
Single whole blood, faeces, and urine pools were created across subjects and radioactive regions representing 10% or more of the circulating radioactivity were analysed (e.g. 10% or more of the circulating radioactivity in whole blood or accounting for 10% or more of the administered radioactivity/dose in urine and faeces), To create the pool, an individual subject AUC pool was prepared, and a constant proportion of each subject pool was taken to create one cross-subject pool. The whole blood sample pool included samples from hours 0–144, the urine sample pool included samples from hours 0–48, and the faeces pool from hours 0–192.
Whole blood, faeces, and urine radiochromatograms were generated for each sample by collecting HPLC fractions at intervals of 2 (30 s) or 4 (15 s) per minute over the run time of 110 min.
Radiochromatograms were generated from AMS data using the LAURA V6 software (LabLogic, Sheffield, UK). Regions of interest were quantified and provisionally identified where possible by assignment of observed peaks in each radiochromatogram to either parent zalunfiban or M1 by retention time matching, with corresponding ^12C-reference standards obtained via LC-UV.
Assignment of parent and metabolites was made by matching retention times with synthesised standards at wavelengths of 210, 230, 254, 270, and 300 nm, using liquid chromatography ultraviolet chromatography (LC-UV).
For extraction of ^14C-zalunfiban from whole blood, weighed aliquots in microcentrifuge tubes were processed with vortex mixing and centrifugation. The supernatant was then harvested and the process repeated with the bullet material in the original tube using acetonitrile and then methanol. The combined aliquots then underwent AMS analysis to determine the extraction recovery. Once optimised, the final combined supernatant was dried under N2 gas at 40 °C and reconstituted with 1 mL methanol:water (20:80, v/v), with vortex mixing and sonication. This was followed by analysis by LC. The radioactivity extraction recovery for whole blood (AUC0–144h) was 54.5%,
For extraction of ^14C-zalunfiban from homogenised faeces, weighed aliquots in microcentrifuge tubes were processed with vortex mixing and centrifugation, and then diluted with acetonitrile, followed by additional mixing, centrifugation, and repeat extraction with methanol:water until optimised. Once optimised, the final combined supernatant was dried under N2 gas at 40 °C and reconstituted with methanol, followed by water, followed by vortex mixing, followed by analysis by LC. The radioactivity extraction recovery for faeces (0–192 h) was 100%.
Urine was not subjected to extraction. An aliquot was dispensed into an LC vial prior to analysis.

The source of these data is paper PMC13108699, “Mass balance and metabolite profiling of ^14C-Zalunfiban in humans following single-dose subcutaneous administration” (Xenobiotica; the fate of foreign compounds in biological …, 2025).

Several values for one entry are separate records, joined by “and”; a condition that tells them apart may be missing. Identical values can stand only once.

For `NCC(=O)Nc1cncc(-c2nn3c(=O)cc(N4CCNCC4)nc3s2)c1` [Zalunfiban, 2-amino-N-{5-[5-oxo-7-(piperazin-1-yl)-5H-[1,3,4]thia-diazolo[3,2-a]pyrimidin-2-yl]pyridin-3-yl}acetamide], the “Time of first detection of whole blood radioactivity” value in series [1] (all participants) worked out at 5 min. In addition, the “Time to which whole blood total radioactivity remained quantifiable” value in series [1] (all subjects except one (216 h)) is given as “up to 240 h”. Moreover, in series [1] (first 4 h after dose), the “Mean whole blood zalunfiban/total radioactivity expressed as a percentage, AUC0–4” value was 35.6% and 35%. Further, the “t1/2, whole blood total radioactivity” value in series [1] (mean, overall (0.5 h to 240 h), n=8) was found to be 98.3 h. The “Mean whole blood zalunfiban/total radioactivity expressed as a percentage, AUC0-inf” value in series [1] (to be interpreted with caution (different assay sensitivity)) worked out at 15.1%. The “Percentage of dose excreted in urine” value in series [2] (0–48 h) turned out to be 1.31%. Also, the “Percentage of total radioactivity in urine” value in series [2] (0–48 h cross-participant pooled sample) turned out to be 1.59%. The “Percentage of dose excreted in faeces” value in series [2] (0–192 h) was 0.0239%. In addition, the “Percentage of total radioactivity in faeces” value in series [2] (0–192 h pooled sample) is 0.173%. In addition, the “Percentage of total circulating radioactivity in whole blood” value in series [2] (AUC0–144 cross-pooled whole blood extract) was determined as 46.9%.
